The subject of data set [1] is sfGFP–BRD4 in Neuro2a cells expressing coilin–HaloTag. In words: BRD4 translocation to coilin–HaloTag, LLSM. The note with it: 25 μM (S)-JQ1 with 20 nM 19HTL, coilin–HaloTag, confocal. Format: cell-based. The protocol: The ability of JQ1 ligands to enter living cells and recruit BRD4 to defined genomic regions was evaluated using lattice light sheet fluorescence microscopy (LLSM). Neuro2a cells were transiently transfected with plasmids encoding three fusion proteins: i) HaloTag protein fused to coilin, […]; ii) superfolder GFP–BRD4; and iii) histone H2B–mCherry as a nuclear marker. The Cajal body component coilin localizes in distinct puncta in the nucleus ([62]) compared to the diffuse euchromatic distribution of BRD4. […]
Neuro2a cell culture, labeling, lattice light sheet microscopy (LLSM), and confocal microscopy. […]
Full 3D volumes at multiple stage positions were collected at 2 minute intervals for 90 minutes total. […] The recruitment of histone H3.3 was assessed by imaging after 24 h incubation with 19HTL. […]
LLSM imaging processing. Raw image data volumes were deskewed and rotated, then empirically deconvolved using a Richardson-Lucy maximum likelihood algorithm using experimentally measured PSFs for each color channel for 30 iterations. […] These segmentation masks were then used to isolate each nucleus for further quantitative analyses. […] The amount of BRD4 signal was then assessed in- versus outside HaloTag labeled domains throughout the 90-min time-lapse acquisition. […]

Data set [2] concerns OMP25–msGFP–HaloTag fusion protein in HEK293T cells. In words: Pulse–chase HaloTag labeling efficiency, SDS–PAGE/in-gel fluorescence. It is filed as cell-based. Conditions: 2 h, mean ± SEM. On the procedure: PBS, 2% (v/v) SDS, 1% (v/v) Triton x-100, 10 mM EDTA, and protease inhibitors (2 mM PMSF, aprotinin, leupeptin, and pepstatin A). Samples were then incubated at 50 °C for 3–4 min after the addition of Laemmli sample buffer (SB; Bio-Rad, 1610747) with β-mercaptoethanol (Bio-Rad, 1610710). For protein detection, 10–20 µL of the sample was subjected to SDS-PAGE, using 10% Tris-Glycine gels (TGX) (Bio-Rad, 5671034) with Tris-Glycine buffer (Bio-Rad, 1610732). […]
Quantification of HaloTag labeling efficiency using in-gel fluorescence. HEK293T cells were cultured, incubated and transfected with pF(UG) hSyn HaloTag-TEV-4×GS-msGFP-mito using lipofectamine LTX reagent as described above. To examine saturation of HaloTag, we screened for fluorescence plateau using 1 μM of JF479-HaloTag ligand,4 JF549-HaloTag ligand (2HTL) and […]
(2HTL) and JF608-HaloTag ligand (3HTL) reached a fluorescence plateau, and they were chosen as saturating counter stains or “chase” dyes for examining the labeling efficiency of biotin-JF-HaloTag ligands (13HTL–16HTL). Next, we developed an in-gel assay to independently quantitate labeling efficiencies of 13HTL–16HTL. We used JF549-HaloTag ligand (2HTL) as chase for evaluating biotin-JF608-HaloTag ligand (14HTL), biotin-JF646-HaloTag ligand (15HTL), and biotin-JF635-HaloTag ligand (16HTL). We used JF608-HaloTag ligand (3HTL) as chase for evaluating biotin-JF549-HaloTag ligand (13HTL). Each experiment consisted of testing the biotin variants 13HTL–16HTL at 100 nM and 1 μM with an incubation time of 2 h and a chase labeling incubation of 1 μM for 0.5 h. The 0.5 h chase labeling period was included with the 2 h total incubation. Each experiment consisted of the following conditions: untransfected cells; (A) transduced, but no dye; (B) non-biotinylated variant of primary label at 1 μM for 0.5 h; (C) the nonbiotinylated version of the chase JF dye at 1 μM for 0.5 h; (D) 100 nM of the nonbiotinylated version of the primary label for 2 h; (E) 100 nM of the biotinylated version of primary label for 2 h; (F) 1 μM of the nonbiotinylated version of the primary label for 2 h; (G) 1 μM of the biotinylated version of primary label for 2 h; and (H) 1 μM of the non-biotinylated version of the chase JF dye at 1 μM for 2 h. This last condition H was the same as condition C but with a longer incubation (2 h vs. 0.5 h) to allow independent verification of the chase saturation using 0.5 h incubation. Samples D–G were incubated with a nonbiotinylated chase dye at 1 μM for 0.5 h. Cells were washed and protein lysates were harvested using Bio-Rad SDS-PAGE products as described above. Specifically, cells were lysed using protein lysis buffer as described above, and adding XT Sample Buffer (Bio-Rad, 1610791) and XT Reducing Agent (Bio-Rad, 1610792). Samples were heated at 72 °C for 5 min. Samples were then loaded onto a 4–12% Criterion XT Bis-Tris gel (Bio-Rad, 3450124) and ran at 150 V for approximately 1 h. Gels were then imaged on a Chemidoc MP imager (Bio-Rad) using orange, red, and far-red filters. Bands representing HaloTag ligand were quantified by densitometry using […]
labeling efficiency calculations, bands representing saturating chase dye fluorescence (e.g., JF549) were compared to saturating primary dye fluorescence allowing estimation of the amount of […]
Where F is the fraction of HaloTag protein labeled, Ce is the experimental chase dye fluorescence signal after incubation with pulse biotin-JF-HaloTag ligand, and Cs is the saturating chase dye fluorescence without incubation with a pulse ligand.
Neuro2a cell culture, labeling, lattice light sheet microscopy (LLSM), and confocal microscopy. Neuro2a cells (ATCC, CCL-131) were cultured in Eagle's minimum essential medium (MEM, phenol red-free; Life Technologies) supplemented with 10% (v/v) fetal bovine serum (FBS), and maintained at 37 °C in a humidified 5% (v/v) CO2 environment. Cells were transiently transfected using nucleofection (Lonza) with plasmids constitutively expressing

The conditions of data set [3]: 1:1 (v/v) dioxane–water, cited from earlier work.
Data set [4] is described as follows: Determination of logD7.4 (miniaturized shake flask, octanol–PBS). Format: physicochemical. Conditions: pH 7.4. On the procedure: Detailed descriptions of the materials and methods are provided in the supporting information. Multifunctional rhodamine–HaloTag ligands (13HTL–16HTL and 18HTL–20HTL) were synthesized using palladium-catalyzed cross-coupling reactions to install 3-carboxyazetidine moieties onto rhodamine scaffolds, followed by amide bond formation with biotin–PEG2–NH2, (S)-JQ1–PEG2–NH2, or (R)-JQ1–PEG2–NH2. Spectroscopic properties (λabs, λem, ε, and Φf) were determined in 10 mM HEPES, pH 7.3. The lactone–zwitterion equilibrium constants (KL–Z) were measured in 1:1 (v/v) dioxane–water mixtures. Octanol–water distribution coefficients (logD7.4) were determined by miniaturized shake-flask partitioning experiments using PBS (pH 7.4) and 1-octanol. Cell culture experiments employed HEK293T, U2OS, and Neuro2a cells transfected with HaloTag fusion constructs and labeled with ligands (100 nM to 1 μM, 0.5 to 2 h at 37 °C), followed by fluorescence microscopy using confocal or lattice light-sheet microscopy. Affinity purification studies utilized streptavidin magnetic beads to capture biotin-labeled HaloTag conjugates, with analysis by SDS-PAGE and in-gel fluorescence detection. […]
Reported values are averages of at least two measurements.
Determination of logD7.4. The log of distribution coefficients at pH 7.4 was determined in octanol–phosphate-buffered saline (PBS) using a miniaturized shake flask setup described previously.6, 7 Briefly, 150 mL each of octanol and PBS pH 7.4 were stirred vigorously for 12–16 h. The layers were allowed to stand for at least 24 h for phase separation. The separated layers were collected and served as PBS saturated with octanol (PBS*) and octanol saturated with PBS (octanol*). Stock solutions (1 mM or 5 mM) of ligands were prepared in DMSO and diluted in PBS* to obtain 1 μM or 10 μM (3–5 mL) of the standard (std). This standard was used to prepare appropriate dilutions using octanol*, in triplicate, in 2-mL glass vials. The leftover standard was used to determine the standard concentration (Cstd). The vials were vortexed for 1 min and shaken horizontally at 700 rpm for 2 h. The vials were then shaken upright at 150 rpm for 2 h to allow the phases to separate. The octanol* layer was pipetted out, and the PBS* layer was used for further analyses. The concentrations of ligands in the standard and PBS* (CPBS*) were determined via fluorescence measurements of 200 μL of PBS* or std in 96-well plates on the Cytation 5 Multimode Plate Reader (BioTek). For Si-rhodamine containing ligands, 2–20 μL of […]
trifluoroacetic acid was added to each well of the 96-well plate prior to the fluorescence measurements. Reported values are averages of at least two measurements. The logD7.4 was obtained as described previously using equation 2: logD = log *’(" × r − 1. +)*+∗ / (2) […]
where Cstd is the standard concentration in PBS, CPBS* is the concentration in PBS after partitioning, r is the dilution factor of the standard solution, VPBS* is the volume of PBS used in the partitioning, and Voctanol* is the volume of octanol used in the partitioning.
Plasmid construction for mitochondria imaging and affinity purification. HaloTag, amplified from the pHTC HaloTag CMV-neo Vector (Promega; G7711) and monomeric-superfolder green fluorescent protein (msGFP; lab stock), was fused to the mitochondrial targeting signal from OMP25,8 interspacing flexible GS(GSS)4 linkers between each domain by PCR Splicing by Overlap Extension (SOE). This construct was subcloned into hSynapsin promoter bearing a copy of FUGW.9 FUGW was a gift from David Baltimore (Addgene plasmid # 14883; RRID:
Addgene_14883).10 This construct was designated as pF(UG) hSyn HaloTag-TEV-4×GS-msGFP- […]
HEK293T cell culture. HEK293T cells (ATCC) were passaged before 80% confluency by trypsinization (Corning; 25-053-CI) and trituration. The cell suspension was then plated on glass coverslips (Warner instruments; 64-0734, CS-18R17) coated with poly-D-lysine (Thermofisher; […]

Details of data set [5]: method as in PMID 28869757, PMID 25599551. The note with it: 10 mM HEPES, pH 7.3; ref 27 and 50; cited from earlier work.

Several values for one entry are separate records, joined by “and”; a condition that tells them apart may be missing. Equal values may be shown once. Read-outs that look alike come from different tables or passages of the source.

This is an account of results in publication PMC12595484, “Optimizing multifunctional fluorescent ligands for intracellular labeling” (Proceedings of the National Academy of Sciences of the …, 2025).

Regarding `Cc1sc2c(c1C)C(c1ccc(Cl)cc1)=N[C@@H](CC(=O)OC(C)(C)C)c1nnc(C)n1-2` [JQ1, (S)-JQ1, reference compound], the “effect of excess free JQ1 on BRD4 recruitment by 19HTL” value in data set [1] is on record as “inhibited BRD4 recruitment”.
Consider `O=C(CCCC[C@@H]1SC[C@@H]2NC(=O)N[C@@H]21)NCCOCCOCCCCCCCl` [17HTL, biotin–HaloTag ligand, reference compound], for which the labeling efficiency in data set [2] (100 nM pulse) was found to be 32.0 ± 9.3%; in data set [2] (1 µM pulse), 92.1 ± 0.4%.
`C[Si]1(C)c2cc(N3CC(F)C3)ccc2C2(OC(=O)c3ccccc32)c2ccc(N3CC(F)C3)cc21` [compound 6, JF635]: the “KL–Z” value in data set [3] was “≈ 0.0001 and 0.0001”. The same compound had a logD in data set [4] of 4.1. Further, in data set [5], the Φf is listed as 0.66, the ε was ~ 400 M^−1cm^−1, the λabs was 635 nm and the λem is 652 nm.
For `C[Si]1(C)c2cc(N3CCC3)ccc2C2(OC(=O)c3ccccc32)c2ccc(N3CCC3)cc21` [compound 5, Janelia Fluor 646], the “KL–Z” value in data set [3] (parent dyes, ref 27 and 50) is 0.0014. In data set [4], this compound showed a logD of 3.98. Also, in data set [5], the Φf was 0.54, the ε is reported as 5,000 M^−1cm^−1, the λabs is given as 646 nm and the λem is on record as 664 nm.
